Data as given in patent publication US9480754B2, “Phospholipid ether analogs as cancer-targeting drug vehicles” (Cellectar Biosciences, Inc., priority 2014, dated 2016).

Key:
Assay type in all cases: in vivo
Lung A-549 (NSCLC) = test: 124I-CLR1404 tumor uptake, model 2; settings: SCID mouse, Adenocarcinoma
Method: (§1) All described animal studies were performed according to animal protocols approved by the Institutional Animal Care and Use Committee. Female athymic nude mice (Hsd:Athymic Nude-Foxnlnu or Crl:NU-Foxnlnu, Charles River Laboratories) about 4 to 5 weeks of age, 16 to 18 g (n=6), were used for human tumor xenograft studies. Mice were anesthetized with isoflurane and injected subcutaneously with viable tumor cells in 100 μl of Dulbecco's PBS (or, for glioma cells, […] of PBS) into the right flank. Inoculum sizes were 1×10^6 (for renal, ovarian, glioma, pancreatic, prostate, and NSCLC models), […] (for colorectal and uterine models), or 3×10^6 (breast).
(§2) Radioiodinated ^124I-CLR1404 was tested in subcutaneous and orthotopic xenografts of 60 different spontaneous, transgenic, human, and rodent malignant cell lines and tumor types. […] Representative examples are of both human (FIG. 5A-5I) and rodent (FIG. 5J-M) tumors.

Lung NCI H-69 (Oat Cell) = test: 124I-CLR1404 tumor uptake, model 3; settings: SCID mouse, Small cell carcinoma
Method: as §1, §2

Adrenal H-295 = test: 124I-CLR1404 tumor uptake, model 4; settings: SCID mouse, Adenocarcinoma
Method: as §1, §2

Colon LS180 = test: 124I-CLR1404 tumor uptake, model 7; settings: SCID mouse, Adenocarcinoma
Method: as §1, §2

Colon DLD1 = test: 124I-CLR1404 tumor uptake, model 8; settings: SCID mouse, Adenocarcinoma
Method: as §1, §2

Colon HT-29 = test: 124I-CLR1404 tumor uptake, model 9; settings: SCID mouse, Adenocarcinoma
Method: as §1, §2

Colon LS-180 = test: 124I-CLR1404 tumor uptake, model 10; settings: Nude mouse, Adenocarcinoma
Method: as §1, §2

Glioblastoma U87 = test: 124I-CLR1404 tumor uptake, model 11; settings: Nude mouse and NOD-SCID, Glioma
Method: as §1, §2

Melanoma A-375 = test: 124I-CLR1404 tumor uptake, model 12; settings: Nude mouse
Method: as §1, §2

Multiple myeloma MM.1S = test: 124I-CLR1404 tumor uptake, model 13; settings: Nude mouse
Method: as §1, §2

Neuroblastoma NB1691 = test: 124I-CLR1404 tumor uptake, model 15; settings: Nude mouse
Method: as §1, §2

Neuroblastoma CHLA-20 = test: 124I-CLR1404 tumor uptake, model 16; settings: Nude mouse
Method: as §1, §2

Neuroblastoma Lan5 = test: 124I-CLR1404 tumor uptake, model 17; settings: Nude mouse
Method: as §1, §2

Ovarian HTB-77 = test: 124I-CLR1404 tumor uptake, model 18; settings: Nude mouse, Adenocarcinoma
Method: as §1, §2

Pancreatic BXPC3 = test: 124I-CLR1404 tumor uptake, model 20; settings: Nude mouse, Adenocarcinoma
Method: as §1, §2

Pancreatic Mia Paca-2 = test: 124I-CLR1404 tumor uptake, model 21; settings: Nude mouse, Carcinoma
Method: as §1, §2

Renal cell Caki-2 = test: 124I-CLR1404 tumor uptake, model 23; settings: Nude mouse (orthotopic), Clear cell carcinoma
Method: as §1, §2

Renal cell ACHN = test: 124I-CLR1404 tumor uptake, model 24; settings: Nude mouse (orthotopic), Adenocarcinoma
Method: as §1, §2

Sarcoma (Meth-A) = test: 124I-CLR1404 tumor uptake, model 25; settings: Nude mouse, Fibrosarcoma
Method: as §1, §2

Prostate LuCap = test: 124I-CLR1404 tumor uptake, model 29; settings: Mouse, Adenocarcinoma
Method: as §1, §2

Breast MCF-7 = test: 124I-CLR1404 tumor uptake, model 30; settings: Rat, Adenocarcinoma
Method: as §1, §2

[1] = tested on: Triple negative breast MDA-MB231; test: 124I-CLR1404 tumor uptake, model 31; settings: Nude mouse, Adenocarcinoma
Method: as §1, §2

Uterine MES SA/Dx5 = test: 124I-CLR1404 tumor uptake, model 32; settings: Nude mouse, Sarcoma
Method: as §1, §2

Glioblastoma 22 GSC = test: 124I-CLR1404 tumor uptake, model 33; settings: NOD-SCID mouse (orthotopic), Glioma
Method: as §1, §2

Glioblastoma 105 GSC = test: 124I-CLR1404 tumor uptake, model 34; settings: NOD-SCID mouse (orthotopic), Glioma
Method: as §1, §2

Breast 4T1 = test: 124I-CLR1404 tumor uptake, model 35; settings: Endogenous mouse (orthotopic), Adenocarcinoma
Method: as §1, §2

Walker256 = test: 124I-CLR1404 tumor uptake, model 38; settings: Rat, Carcinosarcoma
Method: as §1, §2

TRAMP prostate = test: 124I-CLR1404 tumor uptake, model 39; settings: Endogenous mouse, Adenocarcinoma
Method: as §1, §2

Colon CT26 = test: 124I-CLR1404 tumor uptake, model 40; settings: SCID mouse, Adenocarcinoma
Method: as §1, §2

Colon Pirc = test: 124I-CLR1404 tumor uptake, model 41; settings: Autochthonous Pirc rat, Adenocarcinoma
Method: as §1, §2

Melanoma = test: 124I-CLR1404 tumor uptake, model 43; settings: Mouse
Method: as §1, §2

Mammary SCC = test: 124I-CLR1404 tumor uptake, model 44; settings: ApcMin/+ mouse, Squamous cell carcinoma
Method: as §1, §2

Hepatocellular carcinoma = test: 124I-CLR1404 tumor uptake, model 46; settings: Endogenous mouse, Adenocarcinoma
Method: as §1, §2

Glioma L9 = test: 124I-CLR1404 tumor uptake, model 47; settings: Rat xenograft
Method: as §1, §2

Glioma RG2 = test: 124I-CLR1404 tumor uptake, model 50; settings: Rat xenograft
Method: as §1, §2

Retinoblastoma = test: 124I-CLR1404 tumor uptake, model 51; settings: Endogenous mouse, Blastoma
Method: as §1, §2

Pancreatic c-myc = test: 124I-CLR1404 tumor uptake, model 52; settings: Endogenous mouse, Adenocarcinoma
Method: as §1, §2

Pancreatic Kras = test: 124I-CLR1404 tumor uptake, model 53; settings: Endogenous mouse, Adenocarcinoma
Method: as §1, §2

Cervical-HPV = test: 124I-CLR1404 tumor uptake, model 54; settings: Endogenous mouse, Adenocarcinoma
Method: as §1, §2

Esophageal = test: 124I-CLR1404 tumor uptake, model 55; settings: Endogenous Mouse, Adenocarcinoma
Method: as §1, §2

Intestinal polyp = test: 124I-CLR1404 tumor uptake, model 56; settings: Endogenous mouse, Adenoma (benign)
Method: as §1, §2

[2] = tested on: Mammary alveolar hyperplasia; test: 124I-CLR1404 tumor uptake, model 57; settings: Endogenous mouse, Hyperplasia (benign)
Method: as §1, §2

Hepatoma Hep-3B = test: 124I-CLR1404 tumor uptake, model 58; settings: Nude mouse, Carcinoma
Method: as §1, §2

Hepatoma Hep-G2 = test: 124I-CLR1404 tumor uptake, model 59; settings: Nude mouse, Carcinoma
Method: as §1, §2

Pirc rat colon adenoma = test: 124I-CLR1404 tumor uptake, model 60
Method: as §1, §2

C[N+](C)(C)CCOP(=O)([O-])OCCCCCCCCCCCCCCCCCCc1ccc(I)cc1 [^124I-CLR1404]
Uptake (Lung A-549 (NSCLC)): Yes (Tumor uptake was considered positive if tumor to muscle ratio was greater than 3.)
Uptake (Lung NCI H-69 (Oat Cell)): Yes (Tumor uptake was considered positive if tumor to muscle ratio was greater than 3.)
Uptake (Adrenal H-295): Yes (Tumor uptake was considered positive if tumor to muscle ratio was greater than 3.)
Uptake (Colon LS180): Yes (Tumor uptake was considered positive if tumor to muscle ratio was greater than 3.)
Uptake (Colon DLD1): Yes (Tumor uptake was considered positive if tumor to muscle ratio was greater than 3.)
Uptake (Colon HT-29): Yes (Tumor uptake was considered positive if tumor to muscle ratio was greater than 3.)
Uptake (Colon LS-180): Yes (Tumor uptake was considered positive if tumor to muscle ratio was greater than 3.)
Uptake (Glioblastoma U87): Yes (Tumor uptake was considered positive if tumor to muscle ratio was greater than 3.)
Uptake (Melanoma A-375): Yes (Tumor uptake was considered positive if tumor to muscle ratio was greater than 3.)
Uptake (Multiple myeloma MM.1S): Yes (Tumor uptake was considered positive if tumor to muscle ratio was greater than 3.)
Uptake (Neuroblastoma NB1691): Yes (Tumor uptake was considered positive if tumor to muscle ratio was greater than 3.)
Uptake (Neuroblastoma CHLA-20): Yes (Tumor uptake was considered positive if tumor to muscle ratio was greater than 3.)
Uptake (Neuroblastoma Lan5): Yes (Tumor uptake was considered positive if tumor to muscle ratio was greater than 3.)
Uptake (Ovarian HTB-77): Yes (Tumor uptake was considered positive if tumor to muscle ratio was greater than 3.)
Uptake (Pancreatic BXPC3): Yes (Tumor uptake was considered positive if tumor to muscle ratio was greater than 3.)
Uptake (Pancreatic Mia Paca-2): Yes (Tumor uptake was considered positive if tumor to muscle ratio was greater than 3.)
Uptake (Renal cell Caki-2): Yes (Tumor uptake was considered positive if tumor to muscle ratio was greater than 3.)
Uptake (Renal cell ACHN): Yes (Tumor uptake was considered positive if tumor to muscle ratio was greater than 3.)
Uptake (Sarcoma (Meth-A)): Yes (Tumor uptake was considered positive if tumor to muscle ratio was greater than 3.)
Uptake (Prostate LuCap): Yes (Tumor uptake was considered positive if tumor to muscle ratio was greater than 3.)
Uptake (Breast MCF-7): Yes (Tumor uptake was considered positive if tumor to muscle ratio was greater than 3.)
Uptake [1]: Yes (Tumor uptake was considered positive if tumor to muscle ratio was greater than 3.)
Uptake (Uterine MES SA/Dx5): Yes (Tumor uptake was considered positive if tumor to muscle ratio was greater than 3.)
Uptake (Glioblastoma 22 GSC): Yes (Tumor uptake was considered positive if tumor to muscle ratio was greater than 3.)
Uptake (Glioblastoma 105 GSC): Yes (Tumor uptake was considered positive if tumor to muscle ratio was greater than 3.)
Uptake (Breast 4T1): Yes (Tumor uptake was considered positive if tumor to muscle ratio was greater than 3.)
Uptake (Walker256): Yes (Tumor uptake was considered positive if tumor to muscle ratio was greater than 3.)
Uptake (TRAMP prostate): Yes (Tumor uptake was considered positive if tumor to muscle ratio was greater than 3.)
Uptake (Colon CT26): Yes (Tumor uptake was considered positive if tumor to muscle ratio was greater than 3.)
Uptake (Colon Pirc): Yes (Tumor uptake was considered positive if tumor to muscle ratio was greater than 3.)
Uptake (Melanoma): Yes (Tumor uptake was considered positive if tumor to muscle ratio was greater than 3.)
Uptake (Mammary SCC): Yes (Tumor uptake was considered positive if tumor to muscle ratio was greater than 3.)
Uptake (Hepatocellular carcinoma): Yes (Tumor uptake was considered positive if tumor to muscle ratio was greater than 3.)
Uptake (Glioma L9): Yes (Tumor uptake was considered positive if tumor to muscle ratio was greater than 3.)
Uptake (Glioma RG2): Yes (Tumor uptake was considered positive if tumor to muscle ratio was greater than 3.)
Uptake (Retinoblastoma): Yes (Tumor uptake was considered positive if tumor to muscle ratio was greater than 3.)
Uptake (Pancreatic c-myc): Yes (Tumor uptake was considered positive if tumor to muscle ratio was greater than 3.)
Uptake (Pancreatic Kras): Yes (Tumor uptake was considered positive if tumor to muscle ratio was greater than 3.)
Uptake (Cervical-HPV): Yes (Tumor uptake was considered positive if tumor to muscle ratio was greater than 3.)
Uptake (Esophageal): Yes (Tumor uptake was considered positive if tumor to muscle ratio was greater than 3.)
Uptake (Intestinal polyp): No (Tumor:muscle ratio less than or equal to 2 was considered negative.)
Uptake [2]: No (Tumor:muscle ratio less than or equal to 2 was considered negative.)
Uptake (Hepatoma Hep-3B): No (Tumor:muscle ratio less than or equal to 2 was considered negative.)
Uptake (Hepatoma Hep-G2): No (Tumor:muscle ratio less than or equal to 2 was considered negative.)
Uptake (Pirc rat colon adenoma): No (Tumor:muscle ratio less than or equal to 2 was considered negative.)
